How the values were obtained:
[1] = tested on: SMN2 minigene mRNA (SMN2-A minigene) in HEK293H cells; assay: SMN2 minigene mRNA splicing RT-qPCR assay in cultured cells; assay type: cell-based, human; settings: Homo sapiens, HEK293-H; concentration increasing full length SMN2 mRNA 1.5-fold relative to vehicle-treated cells; HEK293H cells with SMN2-A minigene, 24 hours, 7-point concentration data; read-out: EC1.5x for production of full length SMN2 mRNA
Experimental: The reverse transcription-quantitative PCR-based (RT-qPCR) assay is used to quantify the level of the full length SMN2 minigene mRNA containing SMN2 exon 7 in a HEK293H cell line stably transfected with said minigene and treated with a test compound.
Protocol. HEK293H cells stably transfected with the SMN2-A minigene construct described above (10,000 cells/well) are seeded in 200 μL of cell culture medium (DMEM plus 10% FBS, with 200 μg/mL hygromycin) in 96-well flat-bottom plates and the plate is immediately swirled to ensure proper dispersal of cells, forming an even monolayer of cells. Cells are allowed to attach for at least 4-6 hours. Test compounds are serially diluted 3.16-fold in 100% DMSO to generate a 7-point concentration curve. A solution of test compound (1 μL, 200× in DMSO) is added to each cell-containing well and the plate is incubated for 24 hours in a cell culture incubator (37° C., 5% CO2, 100% relative humidity). 2 replicates are prepared for each test compound concentration. The cells are then lysed in Cells-To-Ct lysis buffer and the lysate is stored at −80° C.
Primer SMN Forward A (SEQ ID NO. 1) hybridizes to a nucleotide sequence in exon 7 (nucleotide 22 to nucleotide 40), primer SMN Reverse A (SEQ ID NO. 2) hybridizes to a nucleotide sequence in the coding sequence of Firefly luciferase, SMN Probe A (SEQ ID NO. 3) hybridizes to a nucleotide sequence in exon 7 (nucleotide 50 to nucleotide 54) and exon 8 (nucleotide 1 to nucleotide 21). The combination of these three oligonucleotides detects only SMN1 or SMN2 minigenes (RT-qPCR) and will not detect endogenous SMN1 or SMN2 genes.
The SMN forward and reverse primers are used at final concentrations of 0.4 μM. The SMN probe is used at a final concentration of 0.15 μM. The GAPDH primers are used at final concentrations of 0.2 μM and the probe at 0.15 μM.
The SMN2-minigene GAPDH mix (15 μL total volume) is prepared by combining 7.5 μL of 2× RT-PCR buffer, 0.4 μL of 25× RT-PCR enzyme mix, 0.75 μL of 20× GAPDH primer-probe mix, 4.0075 μL of water, 2 μL of 10-fold diluted cell lysate, 0.06 μL of 100 μM SMN forward primer, 0.06 μL of 100 μM SMN reverse primer, and […].
PCR is carried out at the following temperatures for the indicated time: Step 1: 48° C. (15 min); Step 2: 95° C. (10 min); Step 3: 95° C. (15 sec); Step 4: 60° C. (1 min); then repeat Steps 3 and 4 for a total of 40 cycles.
Each reaction mixture contains both SMN2-A minigene and GAPDH primers/probe sets (multiplex design), allowing simultaneous measurement of the levels of two transcripts.
Two SMN spliced products are generated from the SMN2 minigene. The first spliced product containing exon 7, corresponding to full length SMN2 mRNA, is referred to herein using the term “SMN2 minigene FL.” The second spliced product lacking exon 7 is referred to herein using the term “SMN2 minigene Δ7.”
The increase of SMN2 minigene FL mRNA relative to that in cells treated with vehicle control is determined from real-time PCR data using a modified ΔΔCt method (as described in Livak and Schmittgen, Methods, 2001, 25:402-8). The amplification efficiency (E) is calculated from the slope of the amplification curve for SMN2 minigene FL and GAPDH individually. The abundances of SMN2 minigene FL and GAPDH are then calculated as (1+E)^−Ct, where Ct is the threshold value for each amplicon. The abundance of SMN2 minigene FL is normalized to GAPDH abundance. The normalized SMN2 minigene FL abundance from test compound-treated samples is then divided by normalized SMN2 minigene FL abundance from vehicle-treated cells to determine the level of SMN2 FL mRNA relative to vehicle control.
For compounds of Formula (I) or a form thereof disclosed herein, Table 4 provides the […] for production of full length SMN2 mRNA that was obtained from the 7-point concentration data generated for each test compound according to the procedure of Biological Example 2. […]

[2] = tested on: Smn protein in SMA patient fibroblast cells (GM03813); assay: Smn protein assay in cultured cells (SMN HTRF); assay type: cell-based, human; settings: SMA patient fibroblast cells, 48 hours; for EC1.5x for Smn protein expression: 7-point concentration curve, SMN HTRF, concentration producing 1.5 times Smn protein vs DMSO vehicle control; for maximum fold (Fold) increase of Smn protein: 7-point concentration data, fold relative to vehicle control
Experimental: The SMN HTRF (homogeneous time resolved fluorescence) assay is used to quantify the level of Smn protein in SMA patient fibroblast cells treated with test compounds.
Protocol. Cells are thawed and cultured in DMEM-10% FBS for 72 hours. Cells are trypsinized, counted and re-suspended to a concentration of 25,000 cells/mL in DMEM-10% FBS. The cell suspension is plated at 5,000 cells per well in a 96 well microtiter plate and incubated for 3 to 5 hours. […] Test compounds are serially diluted 3.16-fold in 100% DMSO to generate a 7-point concentration curve. 1 μL of test compound solution is transferred to cell-containing wells and cells are incubated for 48 hours in a cell culture incubator (37° C., 5% CO2, 100% relative humidity). Triplicate samples are set up for each test compound concentration. After 48 hours, the supernatant is removed from the wells and 25 μL of the RIPA lysis buffer, containing protease inhibitors, is added to the wells and incubated with shaking at room temperature for 1 hour. 25 μL of the diluent is added and then 35 μL of the resulting lysate is transferred to a 384-well plate, where each well contains 5 μL of the antibody solution (1:100 dilution of anti-SMN d2 and anti-SMN kryptate in SMN reconstitution buffer). The plate is centrifuged for 1 minute to bring the solution to the bottom of the wells, then incubated overnight at room temperature. Fluorescence for each well of the plate at 665 nm and 620 nm is measured on an EnVision multilabel plate reader (Perkin-Elmer).
The normalized fluorescence signal is calculated for each sample, Blank and vehicle control well by dividing the signal at 665 nm by the signal at 620 nm. Normalizing the signal accounts for possible fluorescence quenching due to the matrix effect of the lysate. The ΔF value (a measurement of Smn protein abundance as a percent value) for each sample well is calculated by subtracting the normalized average fluorescence for the Blank control wells from the normalized fluorescence for each sample well, then dividing this difference by the normalized average fluorescence for the Blank control wells and multiplying the resulting value by 100. The ΔF value for each sample well represents the Smn protein abundance from test compound-treated samples. The ΔF value for each sample well is divided by the ΔF value for the vehicle control wells to calculate the fold increase in Smn protein abundance relative to the vehicle control.
For compounds of Formula (I) or a form thereof disclosed herein, Table 9 provides the EC1.5× for Smn protein expression that was obtained from the 7-point concentration data generated for each test compound according to the procedure of Biological Example 7. The term “EC1.5× for Smn protein expression” is defined as that concentration of test compound that is effective in producing 1.5 times the amount of Smn protein in an SMA patient fibroblast cell compared to the amount produced from the DMSO vehicle control. An EC1.5× for Smn protein expression between >3 μM and ≤10 μM is indicated by one star (*), an EC1.5× between >1 μM and ≤3 μM is indicated by two stars (**), an EC1.5× between >0.3 μM and ≤1 μM is indicated by three stars (***) and an EC1.5x≤0.3 μM is indicated by four stars (****).
For compounds of Formula (I) or a form thereof disclosed herein, Table 10 provides the maximum fold (Fold) increase of Smn protein that was obtained from the 7-point concentration data generated for each test compound according to the procedure of Biological Example 7. A maximum fold increase of ≤1.2 is indicated by one star (*), a fold increase between >1.2 and ≤1.35 is indicated by two stars (**), a fold increase between >1.35 and ≤1.5 is indicated by three stars (***), a fold increase between >1.5 and ≤1.65 is indicated by four stars (****) and a fold increase >1.65 is indicated by five stars (*****).

SMILES	EC (1.5-fold increase) [1]	EC1.5x for Smn protein expression [2]	maximum fold (Fold) increase of Smn protein [2]
Cc1nc2ccc(-c3cc(=O)n4cc(N5CCC(N)CC5)ccc4n3)cc2o1 [Compound 242, 7-(4-aminopiperidin-1-yl)-2-(2-methyl-1,3-benzoxazol-6-yl)-4H-pyrido[1,2-a]pyrimidin-4-one]	< 0.1 µM	**** (an EC1.5x≤0.3 μM is indicated by four stars (****))	**** (a fold increase between >1.5 and ≤1.65 is indicated by four stars (****))
Cc1nc2ccc(-c3cc(=O)n4cc(N5C[C@H]6CNC[C@H]6C5)ccc4n3)cc2o1 [Compound 243, 7-[(3aR,6aS)-hexahydropyrrolo[3,4-c]pyrrol-2(1H)-yl]-2-(2-methyl-1,3-benzoxazol-6-yl)-4H-pyrido[1,2-a]pyrimidin-4-one]	< 0.1 µM	**** (an EC1.5x≤0.3 μM is indicated by four stars (****))	**** (a fold increase between >1.5 and ≤1.65 is indicated by four stars (****))
Cc1cn2cc(-c3cc(=O)n4cc(N5CCN(C)CC5)ccc4n3)cc(F)c2n1 [Compound 269, 2-(8-fluoro-2-methylimidazo[1,2-a]pyridin-6-yl)-7-(4-methylpiperazin-1-yl)-4H-pyrido[1,2-a]pyrimidin-4-one]	< 0.1 µM	**** (an EC1.5x≤0.3 μM is indicated by four stars (****))	***** (a fold increase >1.65 is indicated by five stars (*****))
Cc1cn2cc(-c3cc(=O)n4cc(N5CCN[C@H](C)C5)ccc4n3)cc(F)c2n1 [Compound 270, 2-(8-fluoro-2-methylimidazo[1,2-a]pyridin-6-yl)-7-[(3R)-3-methylpiperazin-1-yl]-4H-pyrido[1,2-a]pyrimidin-4-one]	< 0.1 µM	**** (an EC1.5x≤0.3 μM is indicated by four stars (****))	**** (a fold increase between >1.5 and ≤1.65 is indicated by four stars (****))
Cc1cn2cc(-c3cc(=O)n4cc(N5CCC(N)CC5)ccc4n3)cc(F)c2n1 [Compound 273, 7-(4-aminopiperidin-1-yl)-2-(8-fluoro-2-methylimidazo[1,2-a]pyridin-6-yl)-4H-pyrido[1,2-a]pyrimidin-4-one]	< 0.1 µM	**** (an EC1.5x≤0.3 μM is indicated by four stars (****))	***** (a fold increase >1.65 is indicated by five stars (*****))
Cc1nc2ccc(-c3cc(=O)n4cc(N5CCC(N(C)C)CC5)ccc4n3)cc2s1 [Compound 285, 7-[4-(dimethylamino)piperidin-1-yl]-2-(2-methyl-1,3-benzothiazol-6-yl)-4H-pyrido[1,2-a]pyrimidin-4-one]	< 0.1 µM	**** (an EC1.5x≤0.3 μM is indicated by four stars (****))	***** (a fold increase >1.65 is indicated by five stars (*****))
Cc1nc2ccc(-c3cc(=O)n4cc(C5=CCNCC5)ccc4n3)cc2o1 [Compound 302, 2-(2-methyl-1,3-benzoxazol-6-yl)-7-(1,2,3,6-tetrahydropyridin-4-yl)-4H-pyrido[1,2-a]pyrimidin-4-one]	< 0.1 µM	**** (an EC1.5x≤0.3 μM is indicated by four stars (****))	***** (a fold increase >1.65 is indicated by five stars (*****))
Cc1nc2c(F)cc(-c3cc(=O)n4cc(N5CCN(C)CC5)ccc4n3)cc2o1 [Compound 308, 2-(4-fluoro-2-methyl-1,3-benzoxazol-6-yl)-7-(4-methylpiperazin-1-yl)-4H-pyrido[1,2-a]pyrimidin-4-one]	< 0.1 µM	**** (an EC1.5x≤0.3 μM is indicated by four stars (****))	***** (a fold increase >1.65 is indicated by five stars (*****))
COc1ccc(-c2cc(=O)n3cc(C4C[C@H]5CC[C@@H](C4)N5C)ccc3n2)cc1OC (stereo partly drawn) [Compound 320, 2-(3,4-dimethoxyphenyl)-7-[(1R,5S)-8-methyl-8-azabicyclo[3.2.1]oct-3-yl]-4H-pyrido[1,2-a]pyrimidin-4-one]	0.3 to 1 µM	** (an EC1.5× between >1 μM and ≤3 μM is indicated by two stars (**))	**** (a fold increase between >1.5 and ≤1.65 is indicated by four stars (****))

Reference: US11753407B2, “Compounds for treating spinal muscular atrophy” (PTC Therapeutics, Inc., priority 2012, dated 2023)
